# Measurements reported in patent US10000521B2 (priority 2013, dated 2018).
# Assays:
# Huh7 cells [1] = experiment: TC50 assay with inhibition of ENT1, Huh7 cells; assay type: cell-based; details: Homo sapiens, Huh-7, 48 h, Huh7 cells (48 h)
# Method: (§1) Plating Cells: Huh7 cells or PK9 cells were seeded in 96-well plates at a density of 5,000 cells/well or 2,500 cells/well, respectively, and the plates were incubated at 37° C. for 24 h to allow for cell attachment.
# (§2) Treatment with equilibrative nucleoside transporter 1 (ENT1) Inhibitor: The media was then removed from the plates and replaced with media containing 2% FBS, 0.5% DMSO, and either 10 μM dipyramidole or 10 μM S-(4-nitrobenzyl)-6-thioinosine (NBTI).
# (§3) Treating with Control & Compound 1: After incubation with the ENT1 inhibitor, the cells were treated with each compound at final concentrations ranging from 500 μM to 0 μM in triplicate in media containing 2% FBS, 0.5% DMSO, and either 10 μM dipyridamole or 10 μM NBTI.
# HCV replicon = experiment: IC50 assay with HCV luciferase replicon cell-line; assay type: cell-based; details: Hepatitis C virus, Huh-7; Huh7 cell line containing HCV replicon with luciferase reporter, 48 h
# Excerpt: Plating Cells: The cells used in these assays were a liver-derived Huh7 cell line containing an HCV replicon bearing a luciferase reporter gene. The Huh7 cell-line can be obtained from various sources including the Japanese Collection of Research Bioresources (JCRB), Osaka, Japan. The Huh7 cell line containing an HCV replicon bearing a luciferase reporter gene can be prepared essentially as described by Vrolijk J M, et al. (J Virol Methods. (2003) 110(2):201-9). Cells were passaged when they reached about 70% confluency.
# These 0.5 mM dilutions were then used to further serially dilute the compounds in DMEM+2% FBS+0.5% DMSO to keep the concentration of DMSO in each condition identical.
# The Glo Lysis Buffer and the Bright Glow reagent was allowed to warm to room temperature for about 30 min in the dark. […] The media was removed from cells, and the cells were gently washed with about 100 μL of phosphate buffered saline (PBS). […] It should be noted that luciferin has a half-life of approximately 30 min at room temperature after it is added to the plate. […] The data was saved and used to calculate the percent inhibition of luciferase activity at each drug concentration. […] Curve equation: (m1−m2)/(1+(x/m3)^m4); m1=100; m2=0.01; m3=0.01; m4=0.01; the equation is: […]
# HEPG2 = experiment: TC50 assay in different human cell lines (96 h), HEPG2; assay type: cell-based; details: about 96 h, MTS assay
# Method: (§4) The 96-well plate with cells incubated with test compound was removed from the 37° C. incubator. The appropriate amounts of the MTS and PMS reagents were removed from the kit and mixed well. The reagents were maintained in the dark due to their light sensitivity. […] The solutions were mixed completely in the wells prior to each reading.
# (§5) Plating Cells: Huh7, HEPG2, HEK293, MCF-7, or BxPC3 cells (which can be obtained from American Type Culture Collection, ATCC) were passaged when they were about 70% confluent. […] The cells following passaging were allowed to attach for about 24 hours at 37° C.
# (§6) The plates were then returned to the incubator, and cells incubated for about 96 h at 37° C.
# (§7) MTS Assay: Assay was carried out as described above.
# [2] = TC50 assay in different human cell lines (96 h), HEK293; assay type: cell-based; details: HEK293 cells, about 96 h, MTS assay
# Method: as §4, §5, §6, §7
# Huh7 = experiment: TC50 assay in different human cell lines (96 h), Huh7; assay type: cell-based; details: Huh-7, about 96 h, MTS assay
# Method: as §4, §5, §6, §7
# PK9 cells = experiment: TC50 assay with inhibition of ENT1, PK9 cells; assay type: cell-based; details: Homo sapiens, PK9, 48 h, PK9 cells (48 h)
# Method: as §1, §2, §3
# Huh7 cells [3] = experiment: TC50 MTS cell viability assay with Huh7 cells (48 h); assay type: cell-based; details: Homo sapiens, Huh-7
# Excerpt: Plating Cells: Huh7 cells (a hepatocellular carcinoma cell-line; these cells can be obtained from the Japanese Collection of Research Bioresources (JCRB), Osaka, Japan) were used to determine the TC50 for representative compounds of the present invention. Briefly, Huh7 cells were passaged when they reached about 70% confluency. The cells were counted using a hemocytometer following dilution of the cells to about 0.5×10^5 cells per mL in DMEM with 10% fetal bovine serum (FBS). The cells were plated in a clear 96-well plate (about 5,000 cells in 100 μL per well). The cells were allowed to attach for about 24 hours at 37° C.
# Treating of the cells: The DMEM media without phenol red containing 2% FBS was pre-warmed to 37° C. […] Following dilution, the final DMSO concentration was about 0.5% (v/v). […] The plates were then returned to the incubator and incubated with the cells for 48 h at 37° C.
# as §4
# CD-1 ICR mice = experiment: In vivo toxicology assessment
# Method: All in vivo toxicology assays were performed with CD-1 ICR mice (female, 4-6 week old; 20-30 gram body weight). Groups of one to five mice were treated at each dose level. In one study, compound 1 was prepared at concentrations ranging from 0.1 mg/mL to 30 mg/mL in dimethyl sulfoxide (DMSO) and 200 μL of each solution was administered via oral gavage to mice at final doses of 0.67, 2.0, 6.7, 20, 67 and 200 mg/kg.
# A second study was carried out using a different vehicle. As above, CD-1 ICR mice (female, 4-6 week old; 20-30 gram body weight) were used. Groups of one to five mice were treated at each dose level. Compound 1 was prepared in Formulation I (5% DMSO/10% Solutol/17% (2-Hydroxypropyl)-β-cyclodextrin in aqueous solution) at concentrations ranging from 0.03 mg/mL to 1.0 mg/mL, and administered orally. Briefly, mice were treated with 200 μL of compound 1 in Formulation I via oral gavage at final doses of 2.4 mg/kg and 8.0 mg/kg. In a parallel study, compound 1 was administered intravenously. Briefly, mice were injected with 100 μL of compound 1 in Formulation I at final doses ranging from 0.12 mg/kg to 4.0 mg/kg.
# RPK9 cells = experiment: cells; details: Homo sapiens, 48 h, read-out: TC50 (μM), 48 h treatment
# Method: Plating Cells: PK9 or RPK9 cells were seeded in 96-well plates at a density of 2,500 cells/well or 2,500 cells/well, respectively, and the plates were incubated at 37° C. for 24 h to allow for cell attachment.
# Treating with Control & Compound 1: The cells were treated with each compound at final concentrations ranging from 500 μM to 0 μM in triplicate in media containing 2% FBS and 0.5% DMSO.
# The RPK9 cells are described in Saiki, T., et al. (2012) Biochim. Biophys. Res. Commun. 421, 98-104).
compound,measurement,setting,value
"O=C(Nc1ccn(C2O[C@H](CO)[C@@H](O)C2(F)F)c(=O)n1)c1ccc2c(c1)OCO2 (stereo partly drawn) [Compound 1, N-(1-((4R,5R)-3,3-difluoro-4-hydroxy-5-(hydroxymethyl)tetrahydrofuran-2-yl)-2-oxo-1,2-dihydropyrimidin-4-yl)benzo[d][1,3]dioxole-5-carboxamide]",CC50,Huh7 cells [1]; 10 μM NBTI,440 ± 190 µM
same,CC50,Huh7 cells [1]; 10 μM dipyridamole,410 ± 110 µM
same,CC50,Huh7 cells [1]; ENT1 inhibitor: None,473 ± 74 µM
same,IC50,HCV replicon,0.06 ± 0.008 µM
same,CC50,HEPG2,2.81 µM
same,CC50 at 96 h,[2],4.09 µM
same,CC50,Huh7,7.04 µM
same,CC50,PK9 cells; 10 μM NBTI,2.92 ± 0.41 µM
same,CC50,PK9 cells; 10 μM dipyridamole,0.61 ± 0.31 µM
same,CC50,PK9 cells; ENT1 inhibitor: None,1.63 ± 0.1 µM
same,CC50,Huh7 cells [3],473 ± 74 µM
same,tolerability / toxicity,"CD-1 ICR mice; IV in Formulation I, 0.12 to 4.0 mg/kg, 48 hour observation",well-tolerated and no toxicity was observed
same,tolerability / toxicity,"CD-1 ICR mice; oral gavage in DMSO, 0.67-200 mg/kg, 24 hour observation",well-tolerated and no toxicity was observed
same,tolerability / toxicity,"CD-1 ICR mice; oral gavage in Formulation I, 2.4 and 8.0 mg/kg, 48 hour observation",well-tolerated and no toxicity was observed
same,CC50,RPK9 cells,> 500 µM
